# Test results as given in ChEMBL document CHEMBL6092214, “Design, synthesis, and pharmacological characterization of sulfonylurea-based NLRP3 inhibitors: Towards an effective therapeutic strategy for Alzheimer's disease” (Eur J Med Chem, 2024).
# Calls of active or inactive are those of the source. The calls are words filed in the database; no cut-off is given here.
# Legend:
# [1] = biological target: T1, NACHT, LRR and PYD domains-containing protein 3 (Homo sapiens, UniProt Q96P20); assay: Inhibition of NLRP3 inflammasome activation in PMA-differentiated human THP-1 cells assessed as reduction in LPS/MSU-induced IL-1beta secretion preincubated with LPS for 3 hrs followed by compound addition for 30 mins prior to MSU addition and measured after 4 hrs by ELISA method; type: cell-based
# T1 sequence (Q96P20 whole entry, the tested form may be a part): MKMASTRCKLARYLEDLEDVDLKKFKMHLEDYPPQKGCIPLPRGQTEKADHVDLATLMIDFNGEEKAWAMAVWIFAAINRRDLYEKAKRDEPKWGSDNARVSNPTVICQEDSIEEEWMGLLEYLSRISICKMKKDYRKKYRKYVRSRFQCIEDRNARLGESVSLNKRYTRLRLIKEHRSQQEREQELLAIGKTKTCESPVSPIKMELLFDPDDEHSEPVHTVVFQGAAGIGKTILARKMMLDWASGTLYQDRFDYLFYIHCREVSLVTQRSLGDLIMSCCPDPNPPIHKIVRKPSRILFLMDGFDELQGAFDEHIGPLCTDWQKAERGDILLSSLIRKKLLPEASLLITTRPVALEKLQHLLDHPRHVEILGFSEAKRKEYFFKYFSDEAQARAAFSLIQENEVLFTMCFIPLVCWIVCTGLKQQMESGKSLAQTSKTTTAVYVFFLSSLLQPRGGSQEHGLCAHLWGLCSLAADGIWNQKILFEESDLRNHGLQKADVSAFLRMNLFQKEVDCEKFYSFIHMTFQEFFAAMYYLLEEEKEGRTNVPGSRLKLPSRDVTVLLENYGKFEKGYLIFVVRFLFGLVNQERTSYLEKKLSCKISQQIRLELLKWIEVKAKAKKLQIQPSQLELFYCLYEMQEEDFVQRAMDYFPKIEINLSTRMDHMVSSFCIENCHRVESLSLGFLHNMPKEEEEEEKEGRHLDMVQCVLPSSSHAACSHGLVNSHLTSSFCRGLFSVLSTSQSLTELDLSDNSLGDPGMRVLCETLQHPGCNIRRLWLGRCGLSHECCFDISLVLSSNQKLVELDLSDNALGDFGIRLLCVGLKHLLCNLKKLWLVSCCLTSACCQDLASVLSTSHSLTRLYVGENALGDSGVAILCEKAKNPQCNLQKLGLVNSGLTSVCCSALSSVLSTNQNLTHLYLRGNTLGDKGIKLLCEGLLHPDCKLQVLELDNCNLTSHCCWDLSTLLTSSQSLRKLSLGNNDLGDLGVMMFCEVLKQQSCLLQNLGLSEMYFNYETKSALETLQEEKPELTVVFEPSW
# HEK293 = assay: Cytotoxicity against HEK293 cells assessed as cell viability at 0.39 to 100 uM incubated for 24 hrs by CCK-8 method; type: toxicity, cell-based; conditions: human, hek293, 24 h, dose 0.39-100 µM
# [2] = biological target: T1, NACHT, LRR and PYD domains-containing protein 3; assay: Inhibition of NLRP3 inflammasome activation in PMA-differentiated human THP-1 cells assessed as reduction in LPS/Nigericin-induced IL-1beta secretion at 30 nM preincubated with LPS for 3 hrs followed by compound addition for 30 mins prior to nigericin addition and measured after 30 mins by ELISA method; type: cell-based; conditions: time 1.0 hrs
# [3] = biological target: T1, NACHT, LRR and PYD domains-containing protein 3; assay: Inhibition of NLRP3 inflammasome activation in PMA-differentiated human THP-1 cells assessed as reduction in LPS/ATP-induced IL-1beta secretion at 30 nM preincubated with LPS for 3 hrs followed by compound addition for 30 mins prior to ATP addition and measured after 30 mins by ELISA method; type: cell-based; conditions: time 1.0 hrs
# [4] = biological target: T1, NACHT, LRR and PYD domains-containing protein 3; assay: Inhibition of NLRP3 inflammasome activation in PMA-differentiated human THP-1 cells assessed as reduction in LPS/Nigericin-induced IL-1beta secretion at 3 nM preincubated with LPS for 3 hrs followed by compound addition for 30 mins prior to nigericin addition and measured after 30 mins by ELISA method relative to control; type: cell-based; conditions: time 1.0 hrs
# [5] = biological target: T1, NACHT, LRR and PYD domains-containing protein 3; assay: Inhibition of NLRP3 inflammasome activation in PMA-differentiated human THP-1 cells assessed as reduction in LPS/ATP-induced IL-1beta secretion at 3 nM preincubated with LPS for 3 hrs followed by compound addition for 30 mins prior to ATP addition and measured after 30 mins by ELISA method relative to control; type: cell-based; conditions: time 1.0 hrs
# [6] = biological target: T1, NACHT, LRR and PYD domains-containing protein 3; assay: Inhibition of NLRP3 inflammasome activation in LPS/Nigericin induced PMA-differentiated human THP-1 cells assessed as effect on ROS production by measuring red fluorescence by MitoSOX staining based immunofluorescence analysis; type: cell-based
# [7] = biological target: T1, NACHT, LRR and PYD domains-containing protein 3; assay: Inhibition of NLRP3 inflammasome activation in LPS/Nigericin induced PMA-differentiated human THP-1 cells assessed as effect on mitochondrial membrane potential by Mitotracker staining based immunofluorescence analysis; type: cell-based
# [8] = biological target: NACHT, LRR and PYD domains-containing protein 3 (Mus musculus) (UniProt Q8R4B8); assay: Inhibition of NLRP3 inflammasome activation in mouse BMDM cells assessed as decrease in LPS/Nigericin induced IL-1 beta level by Western blot analysis; type: cell-based; conditions: dose 10-40 nM
# Sequence of NACHT, LRR and PYD domains-containing protein 3 (Mus musculus) (Q8R4B8 whole entry, the tested form may be a part): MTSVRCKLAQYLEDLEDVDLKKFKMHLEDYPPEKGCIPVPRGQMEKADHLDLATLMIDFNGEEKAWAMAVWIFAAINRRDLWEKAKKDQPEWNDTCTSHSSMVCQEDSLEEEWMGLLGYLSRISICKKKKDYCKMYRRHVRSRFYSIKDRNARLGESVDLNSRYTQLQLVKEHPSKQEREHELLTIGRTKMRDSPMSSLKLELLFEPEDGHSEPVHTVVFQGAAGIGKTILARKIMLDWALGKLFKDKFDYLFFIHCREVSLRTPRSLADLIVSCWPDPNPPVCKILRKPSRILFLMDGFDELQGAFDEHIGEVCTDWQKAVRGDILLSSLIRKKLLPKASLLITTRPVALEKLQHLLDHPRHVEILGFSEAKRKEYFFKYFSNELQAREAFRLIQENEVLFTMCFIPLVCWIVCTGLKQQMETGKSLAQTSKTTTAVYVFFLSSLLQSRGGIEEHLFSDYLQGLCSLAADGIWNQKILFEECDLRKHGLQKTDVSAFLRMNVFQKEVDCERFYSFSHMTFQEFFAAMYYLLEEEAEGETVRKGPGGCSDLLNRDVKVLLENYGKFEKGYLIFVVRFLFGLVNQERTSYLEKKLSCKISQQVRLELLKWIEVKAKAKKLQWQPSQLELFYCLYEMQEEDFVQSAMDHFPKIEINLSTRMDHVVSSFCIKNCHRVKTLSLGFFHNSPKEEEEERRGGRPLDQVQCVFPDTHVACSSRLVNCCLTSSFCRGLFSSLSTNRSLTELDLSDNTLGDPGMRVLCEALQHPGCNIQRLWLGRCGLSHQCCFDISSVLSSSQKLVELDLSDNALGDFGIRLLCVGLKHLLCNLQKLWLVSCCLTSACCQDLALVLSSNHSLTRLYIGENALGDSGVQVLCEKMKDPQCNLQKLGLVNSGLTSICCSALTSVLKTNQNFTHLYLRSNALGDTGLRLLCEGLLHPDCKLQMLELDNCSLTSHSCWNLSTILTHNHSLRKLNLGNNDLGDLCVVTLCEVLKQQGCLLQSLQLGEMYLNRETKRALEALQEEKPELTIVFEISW
# [9] = biological target: NACHT, LRR and PYD domains-containing protein 3 (Mus musculus) (UniProt Q8R4B8); assay: Inhibition of NLRP3 inflammasome activation in mouse BMDM cells assessed as decrease in LPS/Nigericin induced caspase-1 level by Western blot analysis; type: cell-based; conditions: dose 10-40 nM
# [10] = biological target: NACHT, LRR and PYD domains-containing protein 3 (Mus musculus) (UniProt Q8R4B8); assay: Inhibition of NLRP3 inflammasome activation in mouse BMDM cells assessed as effect on LPS/Nigericin induced NLRP3 expression level at 10 to 40 nM by Western blot analysis; type: cell-based; conditions: dose 10-40 nM
# [11] = biological target: NACHT, LRR and PYD domains-containing protein 3 (Mus musculus) (UniProt Q8R4B8); assay: Inhibition of NLRP3 inflammasome activation in mouse BMDM cells assessed as effect on LPS/Nigericin induced pro-IL-1beta expression level at 10 to 40 nM by Western blot analysis; type: cell-based; conditions: dose 10-40 nM
# [12] = biological target: NACHT, LRR and PYD domains-containing protein 3 (Mus musculus) (UniProt Q8R4B8); assay: Inhibition of NLRP3 inflammasome activation in mouse BMDM cells assessed as effect on LPS/Nigericin induced procaspase-1 expression level at 10 to 40 nM by Western blot analysis; type: cell-based; conditions: dose 10-40 nM
# [13] = biological target: NACHT, LRR and PYD domains-containing protein 3 (Mus musculus) (UniProt Q8R4B8); assay: Inhibition of NLRP3 inflammasome activation in mouse BMDM cells assessed as effect on LPS/Nigericin induced NEK7 expression level at 10 to 40 nM by Western blot analysis; type: cell-based; conditions: dose 10-40 nM
# [14] = biological target: NACHT, LRR and PYD domains-containing protein 3 (Mus musculus) (UniProt Q8R4B8); assay: Inhibition of NLRP3 inflammasome activation in mouse BMDM cells assessed as effect on LPS/Nigericin induced ASC expression level at 10 to 40 nM by Western blot analysis; type: cell-based; conditions: dose 10-40 nM
# Mus musculus [15] = assay: Anti-aging activity in […] AD mouse model assessed as upregulation of IGF-1 expression at 10 mg/kg administered via gavage daily for 30 days; type: functional, organism-based; conditions: time 30.0 day
# [16] = biological target: T1, NACHT, LRR and PYD domains-containing protein 3; assay: Binding affinity to NLRP3 (unknown origin) assessed as dissociation constant by Surface Plasmon Resonance analysis
# Mus musculus [17] = organism: Mus musculus; assay: Neuroprotective activity against scopolamine-induced cognitive impairment in AD mouse model assessed as reduction in escape latency by Morris water maze test; type: functional, organism-based; conditions: dose 5-30 mg/kg
# Mus musculus [18] = assay: Locomotor activity in mouse assessed as effect on total distance traveled at 30 mg/kg measured for 1.5 hrs by Open field test; type: functional, organism-based
# Mus musculus [19] = assay: Anti-aging activity in […] AD mouse model assessed as reduction in beta-galactosidase level at 10 mg/kg administered via gavage daily for 30 days; type: functional, organism-based; conditions: time 30.0 day
# [20] = Hepatotoxicity in mouse assessed as effect on ALT level at 10 mg/kg measured after 30 days; type: toxicity, organism-based; conditions: in vivo, 720 h, time 30 day
# [21] = Hepatotoxicity in mouse assessed as effect on AST level at 10 mg/kg measured after 30 days; type: toxicity, organism-based; conditions: in vivo, 720 h, time 30 day
# Mus musculus [22] = assay: Neuroprotective activity against scopolamine-induced cognitive impairment in AD mouse model assessed as reduction in escape latency at 10 mg/kg administered daily by Morris water maze test; type: functional, organism-based
smiles,measurement,setting,value
CCCCNC(=O)c1cccc(-c2ccc3c(c2NC(=O)NS(=O)(=O)c2cc(C(C)(C)O)co2)CCC3)c1,IC50,[1],84 nM
O=C(Nc1c(-c2ccc([N+](=O)[O-])cc2)ccc2c1CCC2)NS(=O)(=O)c1ccccc1,IC50,[1],355 nM
CC(C)c1cc(I)cc(C(C)C)c1NC(=O)NS(=O)(=O)c1cc(C(C)(C)O)co1,IC50,[1],31 nM
CC(C)(O)c1coc(S(=O)(=O)NC(=O)Nc2c3c(cc(Br)c2OC2CCCC2)CCC3)c1,IC50,[1],> 1000 nM
CC(=O)c1ccc(S(=O)(=O)NC(=O)Nc2c(-c3ccc([N+](=O)[O-])cc3)ccc3c2CCC3)cc1,IC50,[1],426 nM
COc1cccc(OC)c1-c1ccc2c(c1NC(=O)NS(=O)(=O)c1cc(C(C)(C)O)co1)CCC2,IC50,[1],> 1000 nM
CC(C)c1cccc(-c2ccc3c(c2NC(=O)NS(=O)(=O)c2cc(C(C)(C)O)co2)CCC3)c1,IC50,[1],> 1000 nM
CC(C)(C)c1cc(-c2ccc3c(c2NC(=O)NS(=O)(=O)c2cc(C(C)(C)O)co2)CCC3)cc(C(C)(C)C)c1,IC50,[1],> 1000 nM
COCCOc1ccc(-c2ccc3c(c2NC(=O)NS(=O)(=O)c2cc(C(C)(C)O)co2)CCC3)cc1,IC50,[1],244 nM
O=C(Nc1c(-c2ccc([N+](=O)[O-])cc2)ccc2c1CCC2)NS(=O)(=O)CCO,IC50,[1],> 1000 nM
CN(C)c1cccc(-c2ccc3c(c2NC(=O)NS(=O)(=O)c2cc(C(C)(C)O)co2)CCC3)c1,IC50,[1],> 1000 nM
O=C(Nc1c(-c2ccc([N+](=O)[O-])cc2)ccc2c1CCC2)NS(=O)(=O)c1ccc2ccccc2c1,IC50,[1],> 1000 nM
Cc1ccc(S(=O)(=O)NC(=O)Nc2c(-c3ccc([N+](=O)[O-])cc3)ccc3c2CCC3)cc1,IC50,[1],> 1000 nM
CC(C)(O)c1csc(S(=O)(=O)NC(=O)Nc2c(-c3ccc([N+](=O)[O-])cc3)ccc3c2CCC3)c1,Activity,HEK293,Non-toxic
same,IC50,[1],12 nM
same,inhibition,[2],Active; Compound Nearly Abolished Il-1 Beta Secretion
same,inhibition,[3],Active; Compound Nearly Abolished Il-1 Beta Secretion
same,inhibition,[4],> 50%
same,inhibition,[5],> 50%
same,inhibition,[6],inactive
same,inhibition,[7],inactive
same,inhibition,[8],Dose-dependent-effect
same,inhibition,[9],Dose-dependent-effect
same,inhibition,[10],inactive
same,inhibition,[11],inactive
same,inhibition,[12],inactive
same,inhibition,[13],inactive
same,inhibition,[14],inactive
same,Activity,Mus musculus [15],Active
same,Kd,[16],19.3 nM
same,Activity,Mus musculus [17],Dose-dependent-effect
same,Activity,Mus musculus [18],Active
same,Activity,Mus musculus [19],Active
same,Activity,[20],Non-toxic
same,Activity,[21],Non-toxic
COc1cncc(-c2ccc3c(c2NC(=O)NS(=O)(=O)c2cc(C(C)(C)O)co2)CCC3)c1,IC50,[1],32 nM
Cc1cccc(-c2ccc3c(c2NC(=O)NS(=O)(=O)c2cc(C(C)(C)O)co2)CCC3)c1,IC50,[1],76 nM
CN(C)Cc1ccc(S(=O)(=O)NC(=O)Nc2c(-c3ccc([N+](=O)[O-])cc3)ccc3c2CCC3)cc1,IC50,[1],> 1000 nM
CC(C)(O)c1coc(S(=O)(=O)NC(=O)Nc2c3c(cc4c2CCC4)CCC3)c1,Activity,Mus musculus [22],Active
CCCCOc1cccc(-c2ccc3c(c2NC(=O)NS(=O)(=O)c2cc(C(C)(C)O)co2)CCC3)c1,IC50,[1],287 nM
O=C(Nc1c(-c2ccc([N+](=O)[O-])cc2)ccc2c1CCC2)NS(=O)(=O)CC1CCCCC1,IC50,[1],> 1000 nM
O=C(Nc1c(-c2ccc([N+](=O)[O-])cc2)ccc2c1CCC2)NS(=O)(=O)c1cnn2c1OCCC2,IC50,[1],674 nM
O=C(Nc1c(-c2ccc([N+](=O)[O-])cc2)ccc2c1CCC2)NS(=O)(=O)N1CCCC1,IC50,[1],> 1000 nM
Cc1cc(F)ccc1-c1ccc2c(c1NC(=O)NS(=O)(=O)c1cc(C(C)(C)O)co1)CCC2,IC50,[1],564 nM
CC(C)(O)CS(=O)(=O)NC(=O)Nc1c(-c2ccc([N+](=O)[O-])cc2)ccc2c1CCC2,IC50,[1],> 1000 nM
O=C(Nc1c(-c2ccc([N+](=O)[O-])cc2)ccc2c1CCC2)NS(=O)(=O)c1cccnc1,IC50,[1],> 1000 nM
O=C(Nc1c(-c2ccc([N+](=O)[O-])cc2)ccc2c1CCC2)NS(=O)(=O)c1cc(Br)cs1,IC50,[1],> 1000 nM
CC(C)(O)c1coc(S(=O)(=O)NC(=O)Nc2c(-c3ccc([N+](=O)[O-])cc3)ccc3c2CCC3)c1,IC50,[1],6 nM
O=C(Nc1c(-c2ccc([N+](=O)[O-])cc2)ccc2c1CCC2)NS(=O)(=O)N1CCOCC1,IC50,[1],> 1000 nM
CC(C)(O)c1coc(S(=O)(=O)NC(=O)Nc2c(-c3cccc(OC(F)(F)F)c3)ccc3c2CCC3)c1,IC50,[1],357 nM
CCOc1ccc2cc(-c3ccc4c(c3NC(=O)NS(=O)(=O)c3cc(C(C)(C)O)co3)CCC4)ccc2c1,IC50,[1],72 nM
O=C(Nc1c(-c2ccc([N+](=O)[O-])cc2)ccc2c1CCC2)NS(=O)(=O)c1cccc(Br)n1,IC50,[1],212 nM
Nc1cccc(S(=O)(=O)NC(=O)Nc2c(-c3ccc([N+](=O)[O-])cc3)ccc3c2CCC3)c1,IC50,[1],403 nM
Cc1ccsc1S(=O)(=O)NC(=O)Nc1c(-c2ccc([N+](=O)[O-])cc2)ccc2c1CCC2,IC50,[1],> 1000 nM
CN[C@H]1COc2c(S(=O)(=O)NC(=O)Nc3c(-c4ccc([N+](=O)[O-])cc4)ccc4c3CCC4)cnn2C1,IC50,[1],260 nM
CCCCNS(=O)(=O)c1cccc(-c2ccc3c(c2NC(=O)NS(=O)(=O)c2cc(C(C)(C)O)co2)CCC3)c1,IC50,[1],> 1000 nM
CC(C)(O)c1coc(S(=O)(=O)NC(=O)Nc2c(-c3ccnc(F)c3)ccc3c2CCC3)c1,IC50,[1],27 nM
CCCCc1ccc(-c2ccc3c(c2NC(=O)NS(=O)(=O)c2cc(C(C)(C)O)co2)CCC3)cc1,IC50,[1],> 1000 nM
Cn1ccc(S(=O)(=O)NC(=O)Nc2c(-c3ccc([N+](=O)[O-])cc3)ccc3c2CCC3)n1,IC50,[1],> 1000 nM
Cc1nn(C)cc1S(=O)(=O)NC(=O)Nc1c(-c2ccc([N+](=O)[O-])cc2)ccc2c1CCC2,IC50,[1],> 1000 nM
COC(=O)c1csc(S(=O)(=O)NC(=O)Nc2c(-c3ccc([N+](=O)[O-])cc3)ccc3c2CCC3)c1,IC50,[1],334 nM
O=C(Nc1c(-c2ccc([N+](=O)[O-])cc2)ccc2c1CCC2)NS(=O)(=O)c1cccs1,IC50,[1],54 nM
